Assay results as given in patent publication US4420639A, “Aromatic compounds” (Beecham Group Limited, priority 1973, dated 1983).

Legend:
Adrenal/Pitutary Axis = test: Interactions with the Adrenal/Pitutary Axis; format: in vivo; conditions: five days at 140 mg/kg p.o./day; response to ACTH or ether stress
From the text: h. Interactions with the Adrenal/Pitutary Axis.

[1] = tested on: gastric erosions or ulceration; test: Ulcerogenic Activity in Rats; format: in vivo, rat; conditions: 250 mg/kg p.o. or 500 mg/kg p.o.
From the text: m. Ulcerogenic Activity in Rats.

[2] = tested on: Cotton Pellet Induced Granuloma; test: Cotton Pellet Induced Granuloma in Rats; format: in vivo, rat; conditions: 50 mg/kg p.o. dosed from day 0 to 5 days
Method: c. Cotton Pellet Induced Granuloma in Rats. Consistent activity (reducing induced granuloma by more than 30%) has been observed at 50 mg/kg p.o. dosed from day 0 to 5 days.

[3] = tested on: uterus / endometrium (Clauberg test); test: Gestagenic Activity in Rabbits (Clauberg test); format: in vivo, rabbit; conditions: 200 mg/kg p.o. for 4 days
From the text: k. Gestagenic Activity in Rabbits.

[4] = tested on: cultured mouse peritoneal macrophages; test: Macrophage Plasmongen Activator Release test; format: cell-based; conditions: 1 mg/ml
[5] = tested on: Carrageenin Induced Oedema; test: Carrageenin Induced Oedema in Rats; format: in vivo, rat; conditions: 5, 10, 35 and 70 mg/kg p.o.
From the text: a. Carrageenin Induced Oedema in Rats.

oestrogenicity = test: Oestrogenic effects (general statement); format: in vivo; conditions: at the therapeutic dose
Adjuvant arthritis = test: Adjurant Arthritis in Rats; format: in vivo, rat; conditions: daily administration of 60 mg/kg p.o.
Method: d. Adjurant Arthritis in Rats.
Adjuvant arthritis is reduced in rats by the daily administration of doses of 60 mg/kg p.o.

[6] = tested on: ovariectomised rats, uterine weight; test: Oestrogenic Test in Rats (uterine weight); format: in vivo, rat; conditions: 200 mg/kg p.o. and 600 mg/kg p.o. for 4 days
From the text: i. Oestrogenic Test in Rats.

pyloric ligated rat = test: Gastric Damage in Pyloric Ligated Rats; format: in vivo; conditions: up to 200 mg/kg intra-duadenally
From the text: l. Gastric Damage in Pyloric Ligated Rats.

[7] = tested on: pyresis induced by Shigella endotoxin; test: Anti-pyretic Effect in Rabbits; format: in vivo, rabbit; conditions: doses down to 100 mg/kg p.o.; intravenous Shigella endotoxin
From the text: g. Anti-pyretic Effect in Rabbits.

[8] = tested on: stomach / gastro-intestinal tract; test: Gastro-intestinal irritancy at or near the therapeutic dose (general statement); format: in vivo

**Q.** How did the “interference with release of corticosteroids from the adrenal gland” value (Adrenal/Pitutary Axis) turn out when COc1ccc2cc(CCC(C)=O)ccc2c1 [4-(6'-methoxy-2'-naphthyl)butan-2-one] was run?
**A.** does not interfere with release of corticosteroids

**Q.** What about the “gastric erosions at longer contact times” value ([1]; longer contact times than 4 hours) of the same molecule?
**A.** did lead in some cases to some degree of erosions

**Q.** And the “gastric erosions or ulceration” value ([1]; starved 18 hours, examined 1 or 4 hours after dosing)?
**A.** did not give rise to gastric erosions or ulceration

**Q.** And the “changes in body weight or in the weight of the spleen, thymus, kidney, liver or adrenal glands” value [2]?
**A.** not accompanied by marked changes

**Q.** And the “reduction of induced granuloma” value [2]?
**A.** more than 30%

**Q.** And the “uterine hypertrophy or progestational changes in the endometrium” value [3]?
**A.** did not result in uterine hypertrophy or progestational changes in the endometrium

**Q.** And the “inhibition of the release of plasmogen activator” value [4]?
**A.** slight inhibition

**Q.** What about the “reduction in induced oedema volume” value [5] of the same molecule?
**A.** significant reduction in induced oedema volume

**Q.** What about the oestrogenic effects (oestrogenicity) of the same molecule?
**A.** not causing either oestrogenic effects

**Q.** And the “reduction of adjuvant arthritis” value (Adjuvant arthritis)?
**A.** reduced

**Q.** What about the “increase in uterine weight” value [6] of the same molecule?
**A.** did not result in any increase in uterine weight

**Q.** What about the overt gastric damage (pyloric ligated rat) of the same molecule?
**A.** nor did overt gastric damage result

**Q.** What about the “systemically mediated effect on the volume of gastric secretion” value (pyloric ligated rat) of the same molecule?
**A.** have not been found to have a systemically mediated effect on the volume of gastric secretion

**Q.** And the reduction of pyresis [7]?
**A.** reduced pyresis

**Q.** What about the “irritation of the stomach / gastric-irritant effects” value [8] of the same molecule?
**A.** not causing either oestrogenic effects or pronounced gastric-irritant effects
